Results on nine molecules are retold here after PubChem BioAssay (NCI).

Holding throughout (experiment): NCI-60 cell line screen, 48 h
The subject of assay [1] is NCI-H23 lung.
Assay [2] deals with COLO 205 colon.
Assay [3] deals with UACC-62 melanoma.
The test system of assay [4] is ACHN renal.
The test system of assay [5] is OVCAR-8 ovarian.
Assay [6] has as its system TK-10 renal.
Assay [7] has as its system DU-145 prostate.
For assay [8], the system named is UACC-257 melanoma.
In assay [9] the test system is EKVX NSCLC.
The test system of assay [10] is SK-MEL-2 melanoma.

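Step 1: Grow cells in 96-well plates. Step 2: Expose to compound for 48 hours at 5 concentrations. Step 3: Interpolate endpoints linearly; if unreached, use highest concentration. GI50: concentration for 50% inhibition of growth. Definition used: TGI = concentration required for complete inhibition of growth.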

With `COc1cc(/C=C\c2cc(OC)c(OC)c(OC)c2)cc(N/C=C\C(=O)c2ccc(OC(F)(F)F)cc2)c1OC`, the GI50 was 4.38 µM in assay [1]; 2.98 µM in [2]; 6.86 µM in [3]; 5.56 µM in [4]; 4.59 µM in assay [5]; 4.79 µM in [6]. In addition, the GI50 in [7] was 4.11 µM; in assay [8], 43.3 µM. Also, the TGI in assay [1] is more than 100 µM; in [2], 9.37 µM; in [3], more than 100 µM; in [4], more than 100 µM; in assay [5] it was more than 100 µM; in assay [6] it was more than 100 µM. Besides, the TGI in assay [7] and in assay [8] was more than 100 µM throughout.

In the case of `CS(=O)(=O)Nc1cncc(-c2ccc3ncnc(Nc4ccc(F)c(Cl)c4)c3c2)c1`, the GI50 in [9] was 0.888 µM; in assay [10], 1.5 µM; in assay [1] it was 2.41 µM; in assay [2], 1.95 µM; in [3] it was 2.22 µM; in assay [4] it was 1.69 µM. The GI50 in [5] is 3.73 µM; in assay [7], 2.25 µM; in assay [8], 4.59 µM. Further, the TGI in [9] was 7.01 µM; in assay [10] it was 3.79 µM; in [1], 13.1 µM; in assay [2] it was 5.97 µM; in [3] it was 11.8 µM; in assay [4], more than 100 µM. For the same molecule, the TGI was 23.7 µM in [5], 15.2 µM in assay [7] and 23 µM in [8].

Take `CC(=O)Nc1ccc2c(c1)C(c1ccccc1Cl)=Nc1c(n[nH]c1C)N2`: the GI50 was more than 25 µM in assay [10]; 12.4 µM in assay [1]; 1.53 µM in assay [2]; 6.07 µM in assay [3]; 6.19 µM in assay [4]; 13.4 µM in [5]. The GI50 in assay [6] was 4.13 µM; in assay [7], more than 22.8 µM; in assay [8] it was more than 25 µM. Further, the TGI in assay [10] is more than 25 µM; in [1], more than 25 µM; in [2], more than 22 µM; in assay [3] it was more than 25 µM; in assay [4] it was more than 25 µM; in assay [5] it was more than 25 µM. Besides, the TGI in assay [6], in [7] and in assay [8] was more than 25 µM throughout.

For the molecule `COC[C@@H](N=C1NC(=O)/C(=C/c2ccc3ncccc3c2)S1)c1ccccc1`, the GI50 was 8.19 µM in assay [10]; 11.5 µM in assay [1]; 10.8 µM in assay [2]; 11.6 µM in [3]; 9.24 µM in [4]; 10.2 µM in assay [5]. Further, the results for the GI50 in [7] and in assay [8] were 12 µM and 8.09 µM, respectively. For the same molecule, the TGI in assay [10] was 17.2 µM; in assay [1], more than 25 µM; in [2], more than 25 µM; in assay [3] it was more than 25 µM; in assay [4], more than 25 µM; in assay [5], more than 25 µM. In addition, the TGI in assay [7] and in [8] was more than 25 µM in each case.

Turning to `CC(C)(C)c1ccc(S(=O)(=O)Oc2ccc3c4c(c(=O)oc3c2)CCCCC4)cc1`, the GI50 in assay [10] was 16.5 µM; in [1], 13.5 µM; in assay [2] it was 14.4 µM; in assay [3], 3.19 µM; in [4], 14.4 µM; in assay [5], 21.8 µM. Moreover, the GI50 in [6] was 18.1 µM; in assay [7] it was 37.9 µM; in assay [8], 7.46 µM. The TGI is 55.6 µM in assay [10]; more than 100 µM in assay [1]; more than 100 µM in assay [2]; 33.6 µM in [3]; 34.6 µM in assay [4]; more than 100 µM in assay [5]. Also, the TGI was 36.4 µM in assay [6], more than 100 µM in assay [7] and more than 100 µM in assay [8].

Regarding `CCCCCN(CCCCC)C(=O)[C@@H](CCC(=O)O)NC(=O)c1cc2ccccc2[nH]1`, the TGI in [9] is more than 100 µM; in assay [10] it was 62.2 µM; in assay [1], 58 µM; in assay [2], 94.9 µM; in assay [3], 47.5 µM; in [4], more than 100 µM. Further, the TGI in assay [5], in assay [6] and in [8] was more than 100 µM each time.

Turning to `CC(C)C1=CC(=O)C(C)(C2C(O)CC3(C)C4CC=C5C(CCC(OC6OC(CO)C(O)C(O)C6OC6OC(C)C(O)C(O)C6O)C5(C)C)C4(C)C(=O)CC23C)O1` (stereo not given), the TGI in assay [9], in assay [1], in assay [2], in [3], in assay [4] and in assay [5] was more than 100 µM in each case. The TGI in assay [7] and in [8] was more than 100 µM throughout.

For `c1ccc2sc(SCCSc3nc4ccccc4s3)nc2c1`, the TGI in assay [9], in [10], in assay [1], in [3], in assay [4] and in assay [5] was more than 100 µM in each case. Besides, the TGI in [6], in assay [7] and in assay [8] was more than 100 µM in each case.

In the case of `COc1ccc(C2=N[C@@H](Cc3ccccc3)C(=O)Nc3ccsc32)cc1`, the GI50 in [10] was 11.7 µM; in [1], 11.1 µM; in assay [2], 2.49 µM; in assay [3], 4.47 µM; in assay [4], 6.27 µM; in assay [5] it was 6.31 µM. In addition, the values for the GI50 in assay [6], in assay [7] and in [8] were 13 µM, 4.65 µM and 11.6 µM, respectively. Further, the TGI in assay [10] was found to be 30 µM; in [1] it was 39.6 µM; in assay [2], 5.03 µM; in assay [3], 20.2 µM; in [4], 39.1 µM; in assay [5] it was 57.6 µM. Also, the values for the TGI in assay [6], in assay [7] and in assay [8] were 56.6 µM, 21.9 µM and 36.7 µM, respectively.
